For data set [1] the following is noted: compared with the crystalline form; cited from earlier work.
For data set [2] the following is noted: amorphous form, purity at least 95%; cited from earlier work.
Data set [3] can be described thus: Bulk density of crystalline feed material. The conditions noted are these: crystalline feed material before milling. The class given is physicochemical.
Data set [4] is described as follows: Particle size by scanning electron microscopy. The class given is physicochemical. The conditions noted are these: crystalline feed material before milling. The protocol: 30 g of crystalline cefuroxime axetil S isomer with a particle size of 10-300 μm and having a bulk density of 0.391 g/cc, together with 3 g of sodium lauryl sulphate (SLS) were placed in the bowl of a Micros ‘0’ Super Fine Mill. Cold water was circulated through the outer jacket. The mill was operated with main shaft rotation set at 1000 rpm for 120 mins. The inner temperature was maintained in the range from 19-24° C. […] Samples of the material were examined by scanning electron microscopy and by X-ray diffraction crystallography.
Crystalline cefuroxime axetil S isomer with a particle size of 10-300 μm and having a bulk density of 0.391 g/cc, a mixture of crystalline cefuroxime axetil S isomer with crystalline cefuroxime axetil R isomer with a particle size of 5-50 μm, and having a bulk density of 0.221 g/cc. and crystalline cefuroxime axetil R,S racemic mixture were tested for conversion from the crystalline form to an amorphous form in different trials. The feed material consisted of cefuroxime axetil together with sodium lauryl sulphate or cefuroxime axetil together with sodium lauryl sulphate and colloidal silica (Aerosil 200). Samples of the material were withdrawn at various times for X-ray diffraction crystallography using a XRG 3000 diffractometer, and for scanning electron photomicrography. […] The percent crystallinity for the samples from Examples 6-9 was estimated to be less than 5% in all cases confirming the conversion of cefuroxime axetil to a predominantly (at least 95%) amorphous form.

Setting [5] is: listed as Crystalline cefuroxime axetil S isomer.

For `CO/N=C(\C(=O)N[C@@H]1C(=O)N2C(C(=O)OC(C)OC(C)=O)=C(COC(N)=O)CS[C@H]12)c1ccco1` (some centres unmarked) [cefuroxime axetil in amorphous form, cefuroxime axetil], in data set [1], the bioavailability entry is given as “higher bioavailability than the crystalline form”. The chemical stability entry in data set [2] is given as “adequate chemical stability”.

`CO/N=C(\C(=O)N[C@@H]1C(=O)N2C(C(=O)OC(C)OC(C)=O)=C(COC(N)=O)CS[C@H]12)c1ccco1` (stereo partly drawn) [crystalline cefuroxime axetil S isomer, cefuroxime axetil]: the bulk density in data set [3] and in data set [3] (setting [5]) was 0.391 g/cc each time. Further, the particle size in data set [4] and in data set [4] (setting [5]) was 10-300 μm each time.

Regarding `CO/N=C(\C(=O)N[C@@H]1C(=O)N2C(C(=O)OC(C)OC(C)=O)=C(COC(N)=O)CS[C@H]12)c1ccco1` (stereo partly drawn) [crystalline cefuroxime axetil R isomer, cefuroxime axetil], in data set [3], the bulk density came out at 0.221 g/cc. The particle size in data set [4] was 5-50 μm.

(Values after patent US6534494B1, “Process for the preparation of cefuroxime axetil in an amorphous form” (Ranbaxy Laboratories Limited, priority 1998, dated 2003).)
